Like-named read-outs stand apart in the source and are kept apart here.
Assays:
Experiment in all cases: isothermal titration calorimetry
Assay type in all cases: binding
ORP8 ORD = target: T1, ORP8 ORD (Homo sapiens, UniProt Q9BZF1)
T1 construct: gene OSBPL8; ORD domain 400-778 of ORP8L, His6-ubiquitin tag removed by DUB without extra N-terminal residues, E. coli
T1 sequence (Q9BZF1 400-778): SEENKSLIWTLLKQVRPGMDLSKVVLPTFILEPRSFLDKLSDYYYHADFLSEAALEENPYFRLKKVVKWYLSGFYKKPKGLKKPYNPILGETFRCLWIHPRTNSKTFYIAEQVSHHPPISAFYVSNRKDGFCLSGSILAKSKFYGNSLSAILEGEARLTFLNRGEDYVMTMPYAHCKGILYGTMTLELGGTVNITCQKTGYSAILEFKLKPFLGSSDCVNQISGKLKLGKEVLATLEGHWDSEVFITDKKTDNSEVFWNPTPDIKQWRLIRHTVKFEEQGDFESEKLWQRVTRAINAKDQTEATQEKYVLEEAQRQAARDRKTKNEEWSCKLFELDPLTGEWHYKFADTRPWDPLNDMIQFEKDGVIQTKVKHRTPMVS
From the text: isothermal titration calorimetry on ORP8 ORD

ORP5 ORD = target: T2, ORP5 ORD (Homo sapiens, UniProt Q9H0X9)
T2 construct: gene OSBPL5; ORD domain 364-746 of ORP5A, His6-ubiquitin tag removed by DUB without extra N-terminal residues, E. coli
T2 sequence (Q9H0X9 364-746): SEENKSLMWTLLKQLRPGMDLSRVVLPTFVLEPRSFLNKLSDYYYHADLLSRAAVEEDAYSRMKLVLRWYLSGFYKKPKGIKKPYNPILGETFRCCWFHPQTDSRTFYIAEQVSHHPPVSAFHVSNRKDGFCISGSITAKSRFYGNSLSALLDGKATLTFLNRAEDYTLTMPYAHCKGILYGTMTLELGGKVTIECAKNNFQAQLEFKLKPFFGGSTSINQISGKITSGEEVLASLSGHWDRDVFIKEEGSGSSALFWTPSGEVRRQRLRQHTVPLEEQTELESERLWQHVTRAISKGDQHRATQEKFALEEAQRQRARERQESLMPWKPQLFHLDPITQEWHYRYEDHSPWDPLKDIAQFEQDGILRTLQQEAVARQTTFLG
From the text: isothermal titration calorimetry on ORP5 ORD

ORP8 PH = target: T3, ORP8 PH (Homo sapiens, UniProt Q9BZF1)
T3 construct: gene OSBPL8; PH domain 149-265 of ORP8L, synthetic gene, N-terminal MGSSGSSG and C-terminal RSGPSSGLEEF linkers, GST tag cleaved by thrombin, E. coli
T3 sequence (Q9BZF1 149-265): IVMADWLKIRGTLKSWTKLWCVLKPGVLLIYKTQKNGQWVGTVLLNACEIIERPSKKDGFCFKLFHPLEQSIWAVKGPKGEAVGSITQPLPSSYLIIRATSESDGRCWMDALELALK
From the text: isothermal titration calorimetry on ORP8 PH

ORP5 PH = target: T4, ORP5 PH (Homo sapiens, UniProt Q9H0X9)
T4 construct: gene OSBPL5; PH domain 127-243 of ORP5A, synthetic gene, N-terminal MGSSGSSG and C-terminal RSGPSSGLEEF linkers, GST tag cleaved by thrombin, E. coli
T4 sequence (Q9H0X9 127-243): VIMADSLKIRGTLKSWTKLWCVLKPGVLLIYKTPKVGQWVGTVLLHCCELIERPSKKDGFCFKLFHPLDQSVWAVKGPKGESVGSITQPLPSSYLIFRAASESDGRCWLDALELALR
From the text: isothermal titration calorimetry on ORP5 PH

[1] = water-soluble diC8 lipid, 25 °C, 50 mM Tris pH 8.0, 100 mM NaCl

SMILES | Kd (ORP8 ORD; [1]) [µM] | Kd (ORP5 ORD; [1]) [µM] | Kd (ORP8 PH) [µM] | Kd (ORP5 PH; [1]) [µM] | Kd (ORP8 ORD) [µM] | Kd (ORP5 PH) [µM] | Kd (ORP5 ORD) [µM]
CCCCCCCC(=O)OC[C@H](COP(=O)(O)O[C@H]1[C@H](O)[C@@H](O)[C@H](OP(=O)(O)O)[C@@H](OP(=O)(O)O)[C@H]1O)OC(=O)CCCCCCC [PtdIns(3,4)P2] |  | 0.8 ± 0.8 | 2.9 ± 0.1 | 16.3 ± 0.4 | 2.5 ± 0.6 |  | 
CCCCCCCC(=O)OC[C@H](COP(=O)(O)O[C@H]1[C@H](O)[C@@H](OP(=O)(O)O)[C@H](OP(=O)(O)O)[C@@H](OP(=O)(O)O)[C@H]1O)OC(=O)CCCCCCC [PtdIns(3,4,5)P3] |  | 1.1 ± 0.3 | 11.8 ± 3.2 | 5.3 ± 2.4 |  |  | 
CCCCCCCC(=O)OC[C@H](COP(=O)(O)O[C@@H]1[C@H](O)[C@H](O)[C@@H](OP(=O)(O)O)[C@H](OP(=O)(O)O)[C@H]1O)OC(=O)CCCCCCC [PtdIns(4,5)P2] |  |  | 5.5 ± 1.2 |  | 5.3 ± 0.4 | 7.3 ± 0.5 | 6.7 ± 1.5

Further lines, results first:

Kd (ORP8 ORD; [1]) [µM] | Kd (ORP5 ORD; [1]) [µM] | Kd (ORP8 PH) [µM] | Kd (ORP5 PH; [1]) [µM] | Kd (ORP8 ORD) [µM] | Kd (ORP5 PH) [µM] | Kd (ORP5 ORD) [µM] | SMILES
2.3 ± 0.3 | 6.7 ± 3.3 |  |  |  |  |  | CCCCCCCC(=O)OC[C@H](COP(=O)(O)O[C@H]1[C@H](O)[C@@H](O)[C@H](OP(=O)(O)O)[C@@H](O)[C@H]1O)OC(=O)CCCCCCC [PtdIns(4)P]
 |  |  |  | 1.7 ± 0.8 |  | 9 ± 2.7 | CCCCCCCC(=O)OC[C@H](COP(=O)(O)O[C@@H]1[C@H](O)[C@H](OP(=O)(O)O)[C@@H](O)[C@H](O)[C@H]1O)OC(=O)CCCCCCC [PtdIns(3)P]
 |  |  |  | 5.9 ± 4.1 |  |  | CCCCCCCC(=O)OC[C@H](COP(=O)(O)O[C@H]1[C@H](O)[C@@H](OP(=O)(O)O)[C@H](O)[C@@H](O)[C@H]1O)OC(=O)CCCCCCC [PtdIns(5)P]
